According to patent US5426099A, “Process for inducing analgesia, peptides and therapeutic compositions” (Rutgers, The State University of New Jersey, priority 1991, dated 1995):
“Also recorded” adds a separate entry of the source. Where no end group is shown, it is not given here.

Columns and labels:
[1] = system: female Sprague-Dawley rats; assay: Tail-flick latency to radiant heat
[2] = system: female Sprague-Dawley rats; assay: Vocalization threshold to tail shock; assay type: in vivo, rat; conditions: intrathecal; for elevation in vocalization threshold: 30 min. postinjection; for vocalization threshold compared with saline group (significance): sulfate
Text: Electrical stimulation (100 millisecond trains of 60 Hz square waveform at three-second intervals ranging from 0.01 to 0.4 mA in 0.01 mA increments) is applied (under computer control using a Commodore 64C computer and a Coulbourn constant current stimulator) to the surface of the tail via two lengths of blunt 18-ga stainless steel tubing coated with conductive gel (Spectra 360 Electrode Gel; Parker Laboratories Inc., Orange, N.J. 07050) and taped to the midsection of the tail 2 cm apart, parallel to the axis of the tail. An ascending/descending method of limits is used to estimate the threshold (in mA) to induce vocalization. In this method, an observer records whether or not vocalization occurs in response to each shock. If an animal vocalizes at a particular current intensity, the current intensity is then reduced stepwise until a shock no longer elicits a vocalization response. Then the current is increased stepwise until the animal again vocalizes, and so on, until all mA values for 6 such inversions are obtained. The vocalization threshold estimate is the mean of these 6 values.
The vocalization threshold to tail shock increased by 70% over baseline (pre-injection) levels by the first minute after the intrathecal injection of VIP 11-28 (molar quantity equivalent to 25 mcg VIP 11-28, hereafter referred to as 25 mcge [microgram equivalents]).
Female Sprague-Dawley rats weighing 250 g are used in the testing. The rats are ovariectomized and implanted surgically through the cisterna magna with an intrathecal catheter (i.t.) (PE 10 polyethylene tubing 7.5 cm length) at least 1 week before testing.

[3] = system: smooth muscle; assay: Smooth muscle relaxant action
[4] = system: female Sprague-Dawley rats; assay: Vocalization threshold to tail shock; assay type: in vivo, rat; conditions: intravenous, 3 mg
[5] = system: heart; parameters: key: + = Stimulation; - = Inhibition; conditions: Smitherman+ 88; cited from earlier work
[6] = system: uterus; conditions: Morris+ 89; cited from earlier work
[7] = system: kidney; parameters: key: + = Stimulation; - = Inhibition; conditions: Porter+ 88; cited from earlier work
[8] = system: lumbo-sacral spinal cord; conditions: administered to rats to the intrathecal space of the lumbo-sacral spinal cord; Komisaruk et al. 1988; cited from earlier work
[9] = system: pancreatic cells; parameters: key: + = Stimulation; - = Inhibition; conditions: Robberecht+ 76; cited from earlier work
[10] = system: colonic cells; parameters: key: + = Stimulation; - = Inhibition; conditions: McCabe+ 88; cited from earlier work
[11] = system: trachea; conditions: Said, Mutt+ 77; cited from earlier work
[12] = system: brain (amygdala); parameters: key: + = Stimulation; - = Inhibition; conditions: Quik+ 79; cited from earlier work
[13] = system: bronchi; conditions: Palmer+ 86; cited from earlier work
[14] = reported; cited from earlier work
[15] = system: brain arteries; conditions: Suzuki+ 84; cited from earlier work
[16] = system: genital tract; parameters: key: + = Stimulation; - = Inhibition; conditions: Fahrenkrug+ 88; cited from earlier work
[17] = system: eye; parameters: key: + = Stimulation; - = Inhibition; conditions: cited from earlier work
[18] = system: pancreatic acini; parameters: key: + = Stimulation; - = Inhibition; conditions: Musso+ 88; cited from earlier work
[19] = system: stomach; conditions: Said, Mutt+ 77; cited from earlier work
[20] = system: periaqueductal gray matter; conditions: administered to rats directly into the periaqueductal gray matter; Sullivan and Pert 1981; cited from earlier work
[21] = system: arterial cells; parameters: key: + = Stimulation; - = Inhibition; conditions: Huang+ 84; cited from earlier work
[22] = system: pit. tumor cells; conditions: Westendorf+ 83; cited from earlier work
[23] = system: Schwann cell; conditions: Evans+; cited from earlier work
[24] = system: cortical slices; parameters: key: + = Stimulation; - = Inhibition; conditions: Magistretti+ 84; cited from earlier work
[25] = system: ovarian granulosa; parameters: key: + = Stimulation; - = Inhibition; conditions: cited from earlier work
[26] = system: gastric mucosa; parameters: key: + = Stimulation; - = Inhibition; conditions: Sutliff+ 86; cited from earlier work
[27] = system: spinal cord cult.; parameters: key: + = Stimulation; - = Inhibition; conditions: Brenneman 88; cited from earlier work
[28] = system: vagina; parameters: key: + = Stimulation; - = Inhibition; conditions: Fahrenkrug+ 88; cited from earlier work
[29] = system: brain (IV vent.); parameters: key: + = Stimulation; - = Inhibition; conditions: Drucker-Colin+ 88; cited from earlier work
[30] = system: skin; parameters: key: + = Stimulation; - = Inhibition; conditions: Yanaihara+ 87; cited from earlier work
[31] = system: colon; parameters: key: + = Stimulation; - = Inhibition; conditions: cited from earlier work
[32] = system: dienceph. cells; parameters: key: + = Stimulation; - = Inhibition; conditions: Reichlin 88; cited from earlier work
[33] = intrathecal injection; Cridland and Henry 1988; cited from earlier work
[34] = system: mononuclear cells; parameters: key: + = Stimulation; - = Inhibition; conditions: Ottaway+ 83; cited from earlier work
[35] = system: systemic; parameters: key to cardiac output / blood pressure / arterial blood flow: + = Stimulation; - = Inhibition; conditions: Said, cited from earlier work
[36] = parameters: key: + = Stimulation; - = Inhibition; conditions: Pandol+ 86; cited from earlier work

CN1CC[C@]23c4c5ccc(O)c4O[C@H]2[C@@H](O)C=C[C@H]3[C@H]1C5.O=S(=O)(O)O [morphine sulfate]
TFL compared with other groups (significance) ([1]; intrathecal, 5 mcg): significantly greater than saline at 15 min. and all other groups except morphine 25 mcg at all points from 30-60 min.
TFL compared with other groups (significance) ([1]; intrathecal, 25 mcg, p<0.05, two-tailed, Duncan test): significantly greater than all other groups at all points from 5-60 minutes
elevation in vocalization threshold ([2]; 25 mcg): 60%
vocalization threshold compared with saline group (significance) ([2]; 25 mcg, p<0.05, listed as morphine): significantly greater than the saline group
vocalization threshold compared with saline group (significance) ([2]; 25 mcg, p<0.05): significant elevation in vocalization threshold over the saline group at 20 and 30 min. post injection

TRLRKQMAVKKYLNSILN-NH2 [VIP 11-28, NH--Thr--Arg--Leu--Arg--Lys--Gln--Met--Ala--Val--Lys--Lys--Tyr--Leu--Asn--Ser--Ile--Leu--Asn--Amide]
smooth muscle relaxant action [3]: has shown smooth muscle relaxant action
TFL change compared with saline group (significance) ([1]; intrathecal, 25 mcge, p<0.05, two-tailed, multiple t-test): significantly greater than the saline group
mean TFL elevation, maximum, greater than the preinjection baseline level ([1]; intravenous (jugular vein catheter), 3 mg, 1 minute after injection, n=10): 80%
TFL compared with saline control group (significance) ([1]; intravenous, 3 mg, p<0.05, 2-tailed, Scheffe test): significantly greater effect than saline
elevation in vocalization threshold ([2]; 25 mcge): 170%
vocalization threshold to tail shock, increase over baseline (pre-injection) levels ([2]; 25 mcge, first minute after injection, n=10): 70%
persistence of the significant threshold elevating effect ([2]; 25 mcge, vocalization threshold): ≥ 60 min
vocalization threshold elevation compared with 25 mcg morphine sulfate (significance) ([2]; 25 mcge, at 1-15, 30 and 60 min. postinjection, p<0.05): significantly greater than both the morphine and the saline groups; also recorded: significantly more effective in elevating vocalization thresholds than 25 mcg morphine sulfate
vocalization threshold compared with saline control group (significance) ([2]; 25 mcge, p<0.05, 2-tailed, multiple t-tests): elevated over the saline control group levels at each test for the duration of the 60 min. test period
persistence of threshold elevating effect longer than analgesia produced by VIP 1-28 ([2]; vocalization threshold): at least 30 min.
onset of analgesia post i.t. injection ([2]; vocalization threshold test): 1 min
time of maximum vocalization threshold after injection [4]: 1 min
vocalization threshold compared with saline (significance) [4]: approached, but did not reach, significance; also recorded: approaching, but not attaining, significance

CC[C@H](C)[C@H](NC(=O)[C@H](CO)NC(=O)[C@H](CC(N)=O)NC(=O)[C@H](CC(C)C)NC(=O)[C@H](Cc1ccc(O)cc1)NC(=O)[C@H](CCCCN)NC(=O)[C@H](CCCCN)NC(=O)[C@@H](NC(=O)[C@H](C)NC(=O)[C@H](CCSC)NC(=O)[C@H](CCC(N)=O)NC(=O)[C@H](CCCCN)NC(=O)[C@H](CCCNC(=N)N)NC(=O)[C@H](CC(C)C)NC(=O)[C@H](CCCNC(=N)N)NC(=O)[C@@H](NC(=O)[C@H](Cc1ccc(O)cc1)NC(=O)[C@H](CC(N)=O)NC(=O)[C@H](CC(=O)O)NC(=O)[C@@H](NC(=O)[C@H](Cc1ccccc1)NC(=O)[C@@H](NC(=O)[C@H](C)NC(=O)[C@H](CC(=O)O)NC(=O)[C@H](CO)NC(=O)[C@@H](N)Cc1c[nH]cn1)C(C)C)[C@@H](C)O)[C@@H](C)O)C(C)C)C(=O)N[C@@H](CC(C)C)C(=O)N[C@@H](CC(N)=O)C(N)=O [VIP 1-28, NH--His--Ser--Asp--Ala--Val--Phe--Thr--Asp--Asn--Tyr--Thr--Arg--Leu--Arg--Lys--Gln--Met--Ala--Val--Lys--Lys--Tyr--Leu--Asn--Ser--Ile--Leu--Asn--Amide]
blood flow [5]: +
arterial relaxation [6]: arterial relaxation
renin secretion rate [7]: +
analgesia through the central nervous system [8]: induced analgesia
cyclic AMP [9]: +
chloride secretion [10]: +
smooth muscle relaxation [11]: smooth muscle relaxation
cyclic AMP [12]: +
bronchodilation [13]: bronchodilation
systemic vasodilator activity [14]: has systemic vasodilator activity
vasodilation [15]: 30
blood flow [16]: +
tear secretion ([17]; Gilbard+ 88): +
intraocular pressure ([17]; Mittag+ 87): -
amylase release [18]: +
smooth muscle relaxation [19]: smooth muscle relaxation
analgesia through the central nervous system [20]: induced analgesia
adenylate cyclase [21]: +
ACTH, endorphin release [22]: ACTH, endorphin release
neuronal hyperpolarization [23]: neuronal hyperpolarization
glycogenolypis [24]: +
androgen secretion ([25]; Johnson 88): +
progesterone secretion ([25]; Johnson+ 88): +
cyclic Amp [26]: +
pepsinogen secretion [26]: +
neuronal survival [27]: +
lubrication [28]: +
REM sleep [29]: +
hair growth [30]: +
smooth muscle motility ([31]; Said, Mutt+ 77): +
water flow ([31]; Waldman+ 77): +
TFL elevation compared with saline group (significance) ([1]; intrathecal, VIP 1-28 group): approached, but did not reach, significance
somatostatin release [32]: +
reaction time on a nociceptive test [33]: reduced reaction time
cyclic AMP [34]: +
cardiac output ([35]; Mutt 75): +
hyperglycemia ([35]; Mutt 75): hyperglycemia
respiratory stimulation ([35]; Mutt 75): respiratory stimulation
arterial blood flow ([35]; Mutt+ 77): +
blood pressure ([35]; Mutt+ 77): -
amylase release [36]: +
